The viability is a read-out of living cells in per cent, often relative to untreated cells.

The first data set is described as follows: in vitro. Particulars: human, hela cells, % viability.
For `O=C(c1ccc(OC(F)F)cc1)N1CCCc2cc(S(=O)(=O)N3CCCCC3)ccc21` [CBK295621], the viability at 28.5 h, 10 µM was 118%.
Consider `CCCn1c(NC(=O)C2CCCN2S(=O)(=O)CC)nc2ccccc21` (centres unmarked) [CBK295624], for which the viability at 28.5 h, 10 µM amounted to 96.8%.
For `O=C(O)c1ccc2c(c1)CCN2S(=O)(=O)c1ccc(S(=O)(=O)N2CCOCC2)cc1` [CBK295625], the viability at 28.5 h, 10 µM came out at 97.1%.
Consider `Cc1cccc(C=C(Cl)c2nc3sc(C(=O)O)c(C)c3c(=O)[nH]2)c1` [CBK295626], for which the viability at 28.5 h, 10 µM is 91.6%.
On to `Cc1nc2ccccc2c(C)c1C(=O)OCc1nc(N)nc(N(C)C)n1` [CBK295627], for which the viability at 28.5 h, 10 µM is 70.6%.
On to `CCCCCC(=O)Nc1ccc(C(=O)Cn2nc(C(=O)O)c3ccccc3c2=O)cc1` [CBK295628], for which the viability at 28.5 h, 10 µM worked out at 104%.
In the case of `CCCc1ccc(S(=O)(=O)N2CCN(CC(=O)Nc3cc(C(C)C)no3)CC2)cc1` [CBK295629], the viability at 28.5 h, 10 µM was 114%.
As to `COc1ccc(-c2n[nH]c(=S)n2CCC(=O)NCCc2cc(C)n(-c3ccccc3)c2C)cc1` [CBK295632], the viability at 28.5 h, 10 µM amounted to 97.6%.
Consider `Cc1ccc(C(N)=O)c(OCC(=O)N2c3ccccc3CCC2C)c1` (centres unmarked) [CBK295633], for which the viability at 28.5 h, 10 µM came out at 93.8%.
`CC1Oc2ccccc2OC1C(=O)Nc1nnc(Cc2ccccc2)s1` (centres unmarked) [CBK295634]: the viability at 28.5 h, 10 µM was 90.5%.
As to `CC(C)Cn1c(-c2ccc(F)cc2)cnc1SC(C)C(=O)NC(N)=O` (centres unmarked) [CBK295635], the viability at 28.5 h, 10 µM came to 91.9%.
As to `COc1ccc(Oc2ccc(C=Cc3nc4sc(C(=O)O)c(C)c4c(=O)[nH]3)cc2[N+](=O)[O-])cc1` [CBK295637], the viability at 28.5 h, 10 µM was 112%.
In the case of `Cc1ccc(C=C(c2ccccc2)c2nc3sc(C(=O)O)c(C)c3c(=O)[nH]2)s1` [CBK295638], the viability at 28.5 h, 10 µM is 100%.
Consider `CC(C)(C)NC(=O)CN1CCN(C(=O)CSc2n[nH]c(=O)n2C2CC2)CC1` [CBK295641], for which the viability at 28.5 h, 10 µM was determined as 94.5%.
As to `O=c1c2ccsc2ncn1Cc1nnc(-c2ccc(Br)o2)o1` [CBK295642], the viability at 28.5 h, 10 µM worked out at 88.7%.
With `Cc1cc(C(=O)COc2cccc(-n3cnnn3)c2)c(C)n1C(C)c1ccccc1` (centres unmarked) [CBK295643], the viability at 28.5 h, 10 µM came to 70.2%.
Turning to `Cc1ccc(S(=O)(=O)N2CCC(C(=O)NC3(C(=O)O)CCCCC3)CC2)cc1` [CBK295644], the viability at 28.5 h, 10 µM worked out at 109%.
For `Oc1ccc(CN2CCN(Cc3ccc(Br)s3)CC2)c2cccnc12` [CBK295645], the viability at 28.5 h, 10 µM was determined as 89.5%.
In the case of `COc1ccc(S(=O)(=O)N2CCC(C(=O)NC3(C(=O)O)CCCCC3)CC2)cc1OC` [CBK295646], the viability at 28.5 h, 10 µM is 95.5%.
In the case of `O=C(O)CCc1ccc(S(=O)(=O)Nc2ccc(N3CCCC3=O)cc2)cc1` [CBK295647], the viability at 28.5 h, 10 µM came to 106%.
For the compound `CCCn1c(SCC(=O)Nc2cc(C(C)(C)C)no2)n[nH]c1=O` [CBK295648], the viability at 28.5 h, 10 µM was found to be 104%.
Regarding `CC(C)CCC(C)NC(=O)c1ccc(Oc2ccc(F)cc2)cc1` (centres unmarked) [CBK295650], the viability at 28.5 h, 10 µM is 88.3%.
The same measure, in the same setting: the result for `Cc1c(-n2nnnc2SC(C)c2ccccc2)c(=O)n(-c2ccccc2)n1C` (centres unmarked) [CBK295651] reads 92.9%; that for `CCC(C)NC(=O)c1ccccc1NS(=O)(=O)c1cc(C(=O)O)cs1` (centres unmarked) [CBK295652], 108%; that for `CC(C)(C)C(=O)NCc1ccc(C(=O)CSc2n[nH]c(=O)n2C2CC2)s1` [CBK295653], 111%.
On to `O=C1NC(=O)C(CC(=O)N2CCN(Cc3nc4ccccc4s3)CC2)S1` (centres unmarked) [CBK295654], for which the viability at 28.5 h, 10 µM stood at 98.3%.
Take `O=C(O)c1csc(S(=O)(=O)Nc2ccccc2C(=O)Nc2ccc3c(c2)OCO3)c1` [CBK295655]: the viability at 28.5 h, 10 µM is 102%.
For the compound `CCc1ccc(-c2noc(CSc3n[nH]c(=O)n3CCCOC)n2)cc1` [CBK295656], the viability at 28.5 h, 10 µM was 95.1%.
Consider `O=C(c1ccc(Cl)cc1)c1ccc(OCC(=O)N2CCN(C(=O)c3ccco3)CC2)cc1` [CBK295658], for which the viability at 28.5 h, 10 µM came to 89.2%.
On the same count and under the same terms, the result for `O=C(CSc1nnnn1-c1ccc(O)cc1)NC1CCCC1` [CBK295659] reads 90.6%; that for `CC(NC(=O)c1cn(-c2ccccc2)nc1-c1cccnc1)c1ccccn1` (centres unmarked) [CBK295660], 105%; that for `Cc1cc(C(=O)CN(C)S(=O)(=O)c2ccc(Cl)c(Cl)c2)c(C)n1C` [CBK295661], 102%.
On to `O=C(Nc1ccccc1C(=O)N1CCCC1)c1cc(=O)[nH]c2ccccc12` [CBK295664], for which the viability at 28.5 h, 10 µM turned out to be 99.2%.
As to `CCOc1ccc(NC(=O)C2CCC(C)(C(=O)O)C2(C)C)cc1` (centres unmarked) [CBK295665], the viability at 28.5 h, 10 µM turned out to be 106%.
On to `Cc1ccc(-c2n[nH]c(=S)n2CCC(=O)NC(C)c2ccc3c(c2)CCCC3)cc1` (centres unmarked) [CBK295666], for which the viability at 28.5 h, 10 µM is 90.1%.
Consider `CN(C)c1ccc(C=C2CCCC3C2=NN(C(=O)CCC(=O)O)C3c2ccc(N(C)C)cc2)cc1` (centres unmarked) [CBK296065], for which the viability at 28.5 h, 10 µM was found to be 86.8%.
As to `O=C(Cn1nnc2ccccc21)Nc1ccc(Cl)cn1` [CBK296068], the viability at 28.5 h, 10 µM was found to be 97.9%.
As to `COc1ccc(C=C2CCCC3C2=NN(C(=O)CCC(=O)O)C3c2ccc(OC)c(OC)c2)cc1OC` (centres unmarked) [CBK296070], the viability at 28.5 h, 10 µM worked out at 107%.
With `O=C(O)c1ccc(Nc2nc3ccccc3nc2NS(=O)(=O)c2ccc(Cl)cc2)cc1` [CBK296072], the viability at 28.5 h, 10 µM turned out to be 98.5%.
The same measure, in the same setting: the figure for `O=C(O)CN1C(=O)C(=Cc2ccc(-c3ccc(Br)cc3)o2)SC1=S` [CBK296075] is 92.2%.
Take `COc1ccc(-c2csc(NC(=O)c3ccccc3-c3ccccc3C(=O)O)n2)cc1` [CBK296076]: the viability at 28.5 h, 10 µM turned out to be 88.6%.
In the case of `O=C(O)c1cc(NS(=O)(=O)c2ccc([N+](=O)[O-])cc2)ccc1O` [CBK296077], the viability at 28.5 h, 10 µM turned out to be 110%.
Same read-out and setting: the result for `Cc1ccc(S(=O)(=O)NC(=O)NCCCCNC(=O)NS(=O)(=O)c2ccc(C)cc2)cc1` [CBK296078] reads 102%; that for `O=C(O)Cc1csc(NC(=O)c2ccc(N3CCCCC3)c([N+](=O)[O-])c2)n1` [CBK296081], 84.7%; that for `Cc1cc(NC(c2cccc([N+](=O)[O-])c2)c2ccc3cccnc3c2O)no1` (centres unmarked) [CBK296083], 89.1%.
On to `O=C(O)C=Cc1cn(-c2ccccc2)nc1-c1ccc(-c2ccc([N+](=O)[O-])cc2)o1` [CBK296088], for which the viability at 28.5 h, 10 µM came out at 105%.
On to `CCC(C)C(NC(=O)c1ccccc1NC(=O)c1ccc(OC)cc1)C(=O)O` (centres unmarked) [CBK296090], for which the viability at 28.5 h, 10 µM amounted to 91.4%.
As for `CN(C)c1ccc(C=Nc2ccc(NC(=O)CCC(=O)O)cc2)cc1` [CBK296091], the viability at 28.5 h, 10 µM was 92%.
As for `COc1ccc2cc(-c3cc(C(=O)O)c4ccccc4n3)ccc2c1` [CBK296093], the viability at 28.5 h, 10 µM amounted to 88.4%.
With `O=C(O)c1ccc(N2C(=O)C(=Cc3c4ccccc4cc4ccccc34)SC2=S)cc1` [CBK296101], the viability at 28.5 h, 10 µM came out at 85.9%.
The same measure, in the same setting: the figure for `Cc1ccc(S(=O)(=O)NC(=O)Nc2cccc(NC(=O)NS(=O)(=O)c3ccc(C)cc3)n2)cc1` [CBK296102] is 103%; for `CCOc1cc(N2CCOCC2)c(OCC)cc1NC(=O)CSc1ccccc1C(=O)O` [CBK296107] it is 97.1%.
Regarding `Cc1noc(NS(=O)(=O)c2ccc(NC(=O)c3cc(-c4ccccc4Cl)nc4ccccc34)cc2)c1C` [CBK296108], the viability at 28.5 h, 10 µM amounted to 80.6%.
On to `Cc1ccc(C2=NN(c3ccccc3)C(c3cn(CCC(=O)O)nc3-c3ccccc3)C2)cc1` (centres unmarked) [CBK296110], for which the viability at 28.5 h, 10 µM was 107%.
Take `CCCCc1ccc(NS(=O)(=O)c2ccc(C)c(C(=O)O)c2)cc1` [CBK296111]: the viability at 28.5 h, 10 µM worked out at 116%.
Take `COc1ccc(-c2nn(-c3ccccc3)cc2C(=O)Nc2ccc(C(=O)O)cc2)cc1OC` [CBK296112]: the viability at 28.5 h, 10 µM turned out to be 95%.
Take `COc1ccc(-c2cc(C(=O)OCc3ccccn3)c3ccccc3n2)cc1` [CBK296114]: the viability at 28.5 h, 10 µM was found to be 108%.
As to `O=C(COC(=O)c1cc(-c2ccco2)nc2ccccc12)Nc1ccc(F)c(F)c1F` [CBK296115], the viability at 28.5 h, 10 µM was determined as 84.6%.
With `COc1ccc(-c2csc(NC(=O)NS(=O)(=O)c3ccc(C)cc3)n2)cc1` [CBK296117], the viability at 28.5 h, 10 µM amounted to 88%.
Take `COc1ccc(-c2nn(-c3ccccc3)cc2C(=O)Nc2ccc(C(=O)O)cc2)cc1` [CBK296121]: the viability at 28.5 h, 10 µM turned out to be 106%.
With `O=C(O)c1ccc(NC(=O)c2cn(-c3ccccc3)nc2-c2cccnc2)cc1` [CBK296122], the viability at 28.5 h, 10 µM is 102%.
Consider `COc1ccc(C2=CC(c3ccc(C(F)(F)F)cc3)n3nnnc3N2)cc1OC` (centres unmarked) [CBK296131], for which the viability at 28.5 h, 10 µM is 117%.
Turning to `COc1ccccc1N1CCN(C(=O)CC2(CC(=O)O)CCCC2)CC1` [CBK296137], the viability at 28.5 h, 10 µM amounted to 105%.
As for `O=C(O)CSCC(=O)N(Cc1ccccc1)c1nc(-c2ccccc2)c(-c2ccccc2)s1` [CBK296138], the viability at 28.5 h, 10 µM was determined as 97.5%.
Consider `COc1ccccc1NC(=O)C1=C(C)NC(SCC(=O)Nc2ccc(C(=O)O)cc2)=C(C#N)C1c1cccs1` (centres unmarked) [CBK296139], for which the viability at 28.5 h, 10 µM amounted to 102%.
In the case of `CC(=O)NS(=O)(=O)c1ccc(NC(=O)CCSc2ccc(C)cc2)cc1` [CBK296141], the viability at 28.5 h, 10 µM was found to be 88.5%.
On to `CN(C(=O)c1ccc2c(c1)NC(=O)CS2)c1ccccc1` [CBK296612], for which the viability at 28.5 h, 10 µM worked out at 105%.
Consider `CCN(CC)Cc1cc([N+](=O)[O-])cc2c1OCOC2` [CBK296613], for which the viability at 28.5 h, 10 µM came out at 113%.
As to `CC(=O)c1ccc(NC(=O)C(C)SCc2ccc(C)cc2)cc1` (centres unmarked) [CBK296616], the viability at 28.5 h, 10 µM is 96.7%.
Regarding `CC(=O)Nc1ccccc1OCc1cc(-c2ccccc2)on1` [CBK296617], the viability at 28.5 h, 10 µM turned out to be 99.8%.
Turning to `Cc1noc(C(C)C)c1C(=O)NC(C)c1cccc(Br)c1` (centres unmarked) [CBK296618], the viability at 28.5 h, 10 µM is 92.8%.
As for `CC(NC(=O)c1ccc(-n2cccc2)cc1)c1ccccn1` (centres unmarked) [CBK296619], the viability at 28.5 h, 10 µM is 91.4%.
As to `COc1cc(OC)c(NS(=O)(=O)c2ccc(C(=O)O)cc2)cc1Cl` [CBK296620], the viability at 28.5 h, 10 µM was 97.5%.

Staying with this data set, now noted: human, hela cells, % viability, bulk resorufin, single well.
For the compound `O=C(O)C=CC(=O)Nc1ccc(SC(F)(F)C(F)(F)C(F)(F)F)cc1` [CBK296104], the viability at 28.5 h, 10 µM worked out at 107%.

These data come from paper PMC12040169 (PLOS Biology, 2025).
